From PMC8026769 (Molecular microbiology, 2020)

Experiments:
[1] = target: T1, LpThi5 (LpThi5-His6; Lpg1565) (Legionella pneumophila, UniProt Q5ZV75)
[2] = target: T1, LpThi5 (LpThi5-His6; Lpg1565); remark: listed apart in the source

T1 sequence (Q5ZV75 whole entry, looked up): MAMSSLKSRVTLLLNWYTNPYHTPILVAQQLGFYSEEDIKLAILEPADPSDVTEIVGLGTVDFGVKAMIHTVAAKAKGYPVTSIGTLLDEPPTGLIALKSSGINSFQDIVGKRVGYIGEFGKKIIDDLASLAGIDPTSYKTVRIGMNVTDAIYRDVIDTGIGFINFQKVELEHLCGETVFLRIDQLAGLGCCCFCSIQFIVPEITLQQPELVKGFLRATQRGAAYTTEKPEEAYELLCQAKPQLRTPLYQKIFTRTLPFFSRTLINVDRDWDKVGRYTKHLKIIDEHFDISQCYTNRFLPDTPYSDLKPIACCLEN

Structure (SMILES)	bioassay, HPLC and MALDI-TOF MS of released product [1]	PLP occupancy [2] [%]
Cc1ncc(CO)c(N)n1 [HMP, 2-methyl-4-amino-5-hydroxymethylpyrimidine]	MALDI-TOF MS identified the active molecule as HMP	–
Cc1ncc(COP(=O)(O)O)c(C=O)c1O [PLP, pyridoxal-5’-phosphate]	–	63 ± 2
